Experimental data: patent US6518268B1, “Telomerase inhibitors and methods of their use” (Geron Corporation, priority 1999, dated 2003)

Target: T1, partially purified telomerase from a nuclear extract of HEK293 cells (Homo sapiens, UniProt O14746)
T1 construct: partially purified telomerase from a nuclear extract of HEK293 cells; endogenous in cells; host or cells: HEK293 cells, nuclear extract, partially purified
Assay: In vitro telomerase inhibition, membrane hybridization method (U.S. Pat. No. 5,760,062)
Type: biochemical
Settings: for residual activity of in vitro telomerase activity (in parenthesis): in the presence of the compound at a concentration of 10 μm; for IC50: partially purified telomerase from nuclear extract of HEK293 cells
Experimental: Alternatively, telomerase inhibitory activity of the compounds was measured in accordance with a known method (U.S. Pat. No. 5,760,062). That is, a dimethyl sulfoxide (DMSO) solution of each agent was mixed with partially purified telomerase from a nuclear extract of HEK293 cells and incubated in the presence of an oligodeoxynucleotide to be used as the substrate and deoxynucleotide triphosphate. The obtained reacted product (DNA having a telomere sequence) was adsorbed on a membrane, and hybridization was carried out using a labeled oligonucleotide probe having a sequence complementary to the telomere sequence. The inhibition ratio was calculated based on the ratio of the signal of label on the membrane in the presence of the agent to the signal of label in the absence of the agent (control). Also, concentration of each agent which inhibits 50% of the enzyme activity based on the control was used as IC50.

T1 sequence (O14746 whole entry): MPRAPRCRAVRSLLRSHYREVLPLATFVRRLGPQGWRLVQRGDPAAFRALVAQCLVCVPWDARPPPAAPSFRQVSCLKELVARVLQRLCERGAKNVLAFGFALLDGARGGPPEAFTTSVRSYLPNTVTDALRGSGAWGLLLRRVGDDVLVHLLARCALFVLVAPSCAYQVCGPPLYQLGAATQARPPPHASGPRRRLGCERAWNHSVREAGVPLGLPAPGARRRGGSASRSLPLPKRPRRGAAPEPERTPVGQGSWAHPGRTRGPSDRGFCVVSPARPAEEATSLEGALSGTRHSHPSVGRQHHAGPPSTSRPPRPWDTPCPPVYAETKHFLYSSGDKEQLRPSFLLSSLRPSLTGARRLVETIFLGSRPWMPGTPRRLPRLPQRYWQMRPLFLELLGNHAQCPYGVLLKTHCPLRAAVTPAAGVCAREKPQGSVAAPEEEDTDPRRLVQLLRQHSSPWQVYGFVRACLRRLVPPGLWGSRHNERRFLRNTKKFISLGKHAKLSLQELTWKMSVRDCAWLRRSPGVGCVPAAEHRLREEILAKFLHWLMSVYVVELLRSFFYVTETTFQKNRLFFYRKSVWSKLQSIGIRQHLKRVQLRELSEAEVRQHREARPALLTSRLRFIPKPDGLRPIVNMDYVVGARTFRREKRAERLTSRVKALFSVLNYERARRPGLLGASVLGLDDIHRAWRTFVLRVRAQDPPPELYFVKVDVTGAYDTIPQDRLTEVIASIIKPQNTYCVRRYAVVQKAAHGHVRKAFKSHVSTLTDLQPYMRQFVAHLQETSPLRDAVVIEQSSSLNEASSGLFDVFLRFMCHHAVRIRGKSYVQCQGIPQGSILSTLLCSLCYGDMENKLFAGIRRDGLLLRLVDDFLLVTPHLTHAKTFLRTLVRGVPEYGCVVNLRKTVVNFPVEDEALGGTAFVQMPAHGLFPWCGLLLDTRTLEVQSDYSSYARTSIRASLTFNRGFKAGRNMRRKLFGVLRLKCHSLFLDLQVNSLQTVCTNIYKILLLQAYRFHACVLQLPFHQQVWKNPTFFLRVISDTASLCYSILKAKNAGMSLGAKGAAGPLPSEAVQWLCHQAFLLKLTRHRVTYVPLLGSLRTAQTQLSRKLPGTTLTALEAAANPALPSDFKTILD
T1 sequence (O60832 whole entry partner): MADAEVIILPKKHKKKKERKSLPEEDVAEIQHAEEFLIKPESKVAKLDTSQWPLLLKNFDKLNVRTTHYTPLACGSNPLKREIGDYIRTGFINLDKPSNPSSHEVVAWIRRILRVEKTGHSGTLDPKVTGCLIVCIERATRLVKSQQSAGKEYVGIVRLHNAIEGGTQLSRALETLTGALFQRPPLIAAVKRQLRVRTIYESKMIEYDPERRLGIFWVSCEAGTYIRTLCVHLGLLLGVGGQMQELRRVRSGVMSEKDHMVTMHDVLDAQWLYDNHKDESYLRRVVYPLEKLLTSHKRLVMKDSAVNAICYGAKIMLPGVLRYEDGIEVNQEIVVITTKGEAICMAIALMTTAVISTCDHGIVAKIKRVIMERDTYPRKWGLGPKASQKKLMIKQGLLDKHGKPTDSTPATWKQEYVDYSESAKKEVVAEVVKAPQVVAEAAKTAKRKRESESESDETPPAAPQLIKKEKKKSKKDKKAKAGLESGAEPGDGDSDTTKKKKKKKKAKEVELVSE
T1 sequence (Q9NPE3 whole entry partner): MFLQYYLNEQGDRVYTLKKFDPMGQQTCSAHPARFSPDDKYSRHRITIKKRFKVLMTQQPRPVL
T1 sequence (Q9NX24 whole entry partner): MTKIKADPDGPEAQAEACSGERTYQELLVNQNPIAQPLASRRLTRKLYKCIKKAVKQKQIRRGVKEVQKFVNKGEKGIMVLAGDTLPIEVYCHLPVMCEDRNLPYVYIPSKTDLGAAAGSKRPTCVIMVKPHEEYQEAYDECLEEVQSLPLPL
T1 sequence (Q9NY12 whole entry partner): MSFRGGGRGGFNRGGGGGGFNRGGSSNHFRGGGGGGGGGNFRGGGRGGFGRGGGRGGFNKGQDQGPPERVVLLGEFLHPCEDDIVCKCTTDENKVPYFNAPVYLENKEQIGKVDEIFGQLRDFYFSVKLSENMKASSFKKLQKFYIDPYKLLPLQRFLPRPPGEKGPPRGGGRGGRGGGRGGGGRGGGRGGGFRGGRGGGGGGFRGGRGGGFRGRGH

Row | residual activity of in vitro telomerase activity (in parenthesis) | IC50 [µM] | Structure (SMILES)
1 | (62%) |  | Cc1ccc(Sc2ccc(CO)cc2C=C2SC(=O)NC2=O)cc1 [Compound 96]
2 |  | 4 | O=C1NC(=O)C(=Cc2ccc(N(Cc3ccccc3)c3ccccc3)cc2)S1 [Compound 121]
3 |  | 5.1 | O=C1NC(=O)C(=Cc2ccc(N(Cc3ccccc3)Cc3ccccc3)cc2)S1 [Compound 36]
4 |  | 7 | O=C1NC(=O)C(=Cc2cc([N+](=O)[O-])ccc2Sc2ccc(Br)cc2)S1 [Compound 73]
5 |  | 6.2 | O=C1NC(=O)C(=Cc2cc(C(=O)c3ccc(Cl)cc3)c(Sc3ccc(Cl)cc3)s2)S1 [Compound 65]
6 |  | 2.1 | O=C1NC(=O)C(=Cc2sccc2Oc2ccccc2)S1 [Compound 59]
7 |  | 5.5 | O=C1NC(=O)C(=Cc2ccc(C(O)(c3ccccc3)c3ccccc3)cc2)S1 [Compound 33]
8 |  | 1.6 | O=C1NC(=O)C(=Cc2cc([N+](=O)[O-])ccc2N2CCOCC2)S1 [Compound 125]
9 |  | 4.1 | Cc1ccc(COc2ccc(-c3ccccc3)cc2C=C2SC(=O)NC2=O)cc1 [Compound 47]
10 |  | 6.5 | O=C1NC(=O)C(=Cc2cc(Br)c(Sc3ccc(Cl)cc3)s2)S1 [Compound 63]
11 |  | 9.7 | O=C1NC(=O)/C(=C/c2cc(Br)c([S+]([O-])c3ccc(Cl)cc3)s2)S1 (stereo not shown) [Compound 64]
12 |  | 1.3 | COc1cc(O)ccc1C=C1SC(=O)NC1=O [Compound 126]
13 |  | 5.9 | O=C1NC(=O)C(=Cc2cccc(Oc3ccc(Cl)c(Cl)c3)c2)S1 [Compound 13]
14 |  | 21 | O=C1NC(=O)C(=Cc2ccc(Cc3ccccc3)cc2)S1 [Compound 32]
15 |  | 3.7 | Cc1ccc(Sc2ccc(-c3ccco3)cc2C=C2SC(=O)NC2=O)cc1 [Compound 90]
16 |  | 70 | Cc1ccc(COc2cc(C=C3SC(=O)NC3=O)ccc2[N+](=O)[O-])cc1 [Compound 19]
17 |  | 4.3 | COc1cc(C=C2SC(=O)NC2=O)ccc1Sc1ccc(C)cc1 [Compound 138]
18 |  | 7.7 | O=C1NC(=O)C(=Cc2cc([N+](=O)[O-])ccc2SCCO)S1 [Compound 122]
19 |  | 5.7 | O=C1NC(=O)C(=Cc2ccccc2OC(F)(F)F)S1 [Compound 127]
20 |  | 6.9 | CCCN(CCC)c1ccc([N+](=O)[O-])cc1C=C1SC(=O)NC1=O [Compound 123]

Row | residual activity of in vitro telomerase activity (in parenthesis) | IC50 [µM] | Structure (SMILES)
21 |  | 7.8 | Cc1ccc(Sc2ccc(C#N)cc2C=C2SC(=O)NC2=O)cc1 [Compound 94]
22 |  | 1.9 | O=C1NC(=O)C(=Cc2cc(-c3ccccc3)sc2Sc2ccc(Cl)cc2)S1 [Compound 44]
23 |  | 4.4 | Cc1ccc(Sc2ccc(C(=O)OCc3ccccc3)cc2C=C2SC(=O)NC2=O)cc1 [Compound 139]
24 |  | 0.77 | O=C1NC(=O)C(=Cc2cc(C(=O)O)sc2Sc2ccc(Cl)cc2)S1 [Compound 53]
25 |  | 14 | COc1ccc(OCc2ccc(C)cc2)c(C=C2SC(=O)NC2=O)c1 [Compound 23]
26 |  | 3.9 | O=C1NC(=O)C(=Cc2cc([N+](=O)[O-])ccc2SC2CCCCC2)S1 [Compound 84]
27 |  | 5.5 | O=C1NC(=O)C(=Cc2ccc(Sc3ccc(Br)cc3)c([N+](=O)[O-])c2)S1 [Compound 80]
28 |  | 10 | O=C1NC(=O)C(=Cc2cc([N+](=O)[O-])ccc2OCc2ccc(Cl)c(Cl)c2)S1 [Compound 17]
29 |  | 16 | Cc1c(C)c2c(c(C)c1O)CCC(C)(COc1ccc(CC3SC(=O)NC3=O)cc1)O2 (stereo not shown) [Troglitazone, troglitazone, reference compound]
30 |  | 3.9 | O=C1NC(=O)C(=Cc2cc([N+](=O)[O-])ccc2SCc2ccccc2)S1 [Compound 76]
31 | (61%) |  | COc1ccc(Sc2ccc(C)cc2)c(C=C2SC(=O)NC2=O)c1 [Compound 104]
32 |  | 2.7 | O=C1NC(=O)C(=Cc2cc([N+](=O)[O-])ccc2Sc2ccccc2Cl)S1 [Compound 71]
33 |  | 3.9 | O=C1NC(=O)C(=Cc2ccc(CN(c3ccccc3)c3ccccc3)cc2)S1 [Compound 35]
34 | (61%) |  | Cc1ccc([S+]([O-])c2ccc(-c3ccco3)cc2C=C2SC(=O)NC2=O)cc1 (stereo not shown) [Compound 91]
35 |  | 4.2 | O=C1NC(=O)C(=Cc2ccc(N(c3ccccc3)c3ccccc3)cc2)S1 [Compound 26]
36 | (54%) |  | O=C1NC(=O)C(=Cc2cc([N+](=O)[O-])ccc2N2CCCCC2)S1 [Compound 124]
37 |  | 4.5 | Cc1ccc(Sc2ccc(Cl)cc2C=C2SC(=O)NC2=O)cc1 [Compound 106]
38 |  | 3.7 | COc1ccc(Sc2ccc([N+](=O)[O-])cc2C=C2SC(=O)NC2=O)cc1 [Compound 74]
39 |  | 2.6 | CSc1ccc(Sc2ccc([N+](=O)[O-])cc2C=C2SC(=O)NC2=O)cc1 [Compound 132]
40 |  | 6.9 | Cc1ccc(Sc2ccc(Br)cc2C=C2SC(=O)NC2=O)cc1 [Compound 87]

Row | residual activity of in vitro telomerase activity (in parenthesis) | IC50 [µM] | Structure (SMILES)
41 |  | 83 | CCc1ccc(CCOc2ccc(CC3SC(=O)NC3=O)cc2)nc1 (stereo not shown) [Pioglitazone, pioglitazone, reference compound]
42 |  | 15 | O=C1NC(=O)C(=Cc2ccc(C(=O)c3ccccc3)cc2)S1 [Compound 31]
43 |  | 2.6 | O=C1NC(=O)C(=Cc2cc(Br)sc2Sc2ccc(Cl)cc2)S1 [Compound 43]
44 | (62%) |  | Cc1ccc(Sc2cc(C(F)(F)F)ccc2C=C2SC(=O)NC2=O)cc1 [Compound 101]
45 |  | 7.2 | O=C1NC(=O)C(=Cc2cc([N+](=O)[O-])ccc2Sc2ccc3ccccc3c2)S1 [Compound 171]
46 |  | 8.3 | Cc1ccc(Sc2ccc(C=C3SC(=O)NC3=O)cc2[N+](=O)[O-])cc1 [Compound 9]
47 |  | 8.1 | O=C1NC(=O)C(=Cc2cc([N+](=O)[O-])ccc2Sc2ccc(C(=O)O)cc2)S1 [Compound 129]
48 |  | 4.4 | O=C1NC(=O)C(=Cc2ccc(N(c3ccc(CO)cc3)c3ccc(CO)cc3)cc2)S1 [Compound 49]
49 |  | 4.8 | O=C1NC(=O)C(=Cc2cc([N+](=O)[O-])ccc2Sc2cccc(Cl)c2)S1 [Compound 70]
50 |  | 4.4 | Cc1ccc(Sc2ccc(C(F)(F)F)cc2C=C2SC(=O)NC2=O)cc1 [Compound 100]
51 |  | 1 | O=C1NC(=O)C(=Cc2cc([N+](=O)[O-])ccc2Sc2ccc(Cl)cc2)S1 [Compound 67]
52 |  | 2.6 | O=C1NC(=O)/C(=C/c2c3ccccc3c(Sc3ccc(Cl)cc3)c3ccccc23)S1 [Compound 128]
53 |  | 1.6 | Cc1ccc(COc2ccc(-c3cccs3)cc2C=C2SC(=O)NC2=O)cc1 [Compound 48]
54 | (56%) |  | COC(=O)c1cc(C=C2SC(=O)NC2=O)c(Sc2ccc(Cl)cc2)s1 [Compound 58]
55 | (53%) |  | O=C1NC(=O)C(=Cc2cc([N+](=O)[O-])ccc2Oc2ccccc2)S1 [Compound 110]
56 |  | 6.9 | Cc1ccc(Sc2cccc(C(F)(F)F)c2C=C2SC(=O)NC2=O)cc1 [Compound 99]
57 |  | 3.5 | O=C1NC(=O)C(=Cc2cc([N+](=O)[O-])ccc2SCc2ccc(Cl)cc2)S1 [Compound 79]
58 |  | 5.5 | Cc1ccc(Sc2ccc(C=C3SC(=O)NC3=O)cc2Oc2ccccc2)cc1 [Compound 137]

Row | Structure (SMILES) | residual activity of in vitro telomerase activity (in parenthesis) | IC50 [µM]
59 | Cc1ccc(COc2ccc(Br)cc2C=C2SC(=O)NC2=O)cc1 [Compound 25] |  | 4.2
60 | Cc1ccc(COc2ccc(Cl)cc2C=C2SC(=O)NC2=O)cc1 [Compound 24] |  | 5.3
61 | Cc1ccc(COc2ccc(C=C3SC(=O)NC3=O)cc2[N+](=O)[O-])cc1 [Compound 20] |  | 9
